pKd: −log10 of the molar value.
Key:
GSNOR (M. oryzae) = target: T1, GSNOR (M. oryzae) (Pyricularia oryzae, UniProt G4N4N6); assay: biochemical
T1 construct: gene MGG_06011

rice GSNOR = target: T2, rice GSNOR (Oryza sativa, UniProt Q0DWH1); assay: surface plasmon resonance (OpenSPR); assay type: binding
T2 construct: gene Os02g0815500
T2 sequence (Q0DWH1 whole entry): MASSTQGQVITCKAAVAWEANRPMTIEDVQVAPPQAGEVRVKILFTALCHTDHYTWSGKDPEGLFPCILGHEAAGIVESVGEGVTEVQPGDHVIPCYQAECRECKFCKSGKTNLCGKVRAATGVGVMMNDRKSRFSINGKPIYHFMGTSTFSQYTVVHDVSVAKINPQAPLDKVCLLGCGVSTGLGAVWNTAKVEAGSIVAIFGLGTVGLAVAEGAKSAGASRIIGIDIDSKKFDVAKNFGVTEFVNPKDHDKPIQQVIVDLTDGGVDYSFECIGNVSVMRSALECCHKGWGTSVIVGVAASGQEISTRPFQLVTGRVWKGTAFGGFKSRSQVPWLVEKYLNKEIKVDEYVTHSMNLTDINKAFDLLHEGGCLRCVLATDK

T1 sequence (G4N4N6 1-381): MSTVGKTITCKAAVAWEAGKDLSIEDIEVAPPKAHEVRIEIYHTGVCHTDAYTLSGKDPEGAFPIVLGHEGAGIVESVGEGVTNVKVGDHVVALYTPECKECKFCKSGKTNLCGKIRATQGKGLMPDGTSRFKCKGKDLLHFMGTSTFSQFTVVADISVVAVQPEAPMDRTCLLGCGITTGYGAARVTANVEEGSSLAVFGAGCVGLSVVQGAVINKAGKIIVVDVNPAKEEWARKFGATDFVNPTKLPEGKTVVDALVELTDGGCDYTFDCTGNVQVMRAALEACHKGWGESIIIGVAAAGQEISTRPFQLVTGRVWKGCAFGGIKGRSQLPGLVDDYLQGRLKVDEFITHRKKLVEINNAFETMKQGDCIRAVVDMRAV

In the case of Cc1cc(C(N)=O)ccc1-n1c(CCC(=O)O)ccc1-c1ccc(-n2ccnc2)cc1 [N6022], the pKd (GSNOR (M. oryzae)) was 4.25 and the pKd (rice GSNOR) was 3.54.
